Key:
B16 [1] = assay: Anticancer activity against mouse B16 cells after 48 hrs by MTT assay; format: functional, cell-based; details: B16, 48 h
HT-29 [2] = assay: Anticancer activity against human HT-29 cells after 48 hrs by MTT assay; format: functional, cell-based; details: HT-29, 48 h
NCI-H460 [3] = assay: Anticancer activity against human NCI-H460 cells after 48 hrs by MTT assay; format: functional, cell-based; details: NCI-H460, 48 h
PC-3 [4] = assay: Anticancer activity against human PC3 cells after 48 hrs by MTT assay; format: functional, cell-based; details: PC-3, 48 h
B16 [5] = assay: Growth inhibition of mouse B16 cells at 100 uM after 48 hrs by MTT assay; format: functional; details: B16, 48 h, read-out: GI
HT-29 [6] = assay: Growth inhibition of human HT-29 cells at 100 uM after 48 hrs by MTT assay; format: functional; details: HT-29, 48 h, read-out: GI
PC-3 [7] = assay: Growth inhibition of human PC3 cells at 100 uM after 48 hrs by MTT assay; format: functional; details: PC-3, 48 h, read-out: GI
NCI-H460 [8] = assay: Growth inhibition of human NCI-H460 cells at 100 uM after 48 hrs by MTT assay; format: functional; details: NCI-H460, 48 h, read-out: GI

SMILES: CC1(C)Cc2c(ccc(C(=O)/C=C/c3ccccc3)c2OCc2ccccc2)O1
- IC50 (B16 [1]): > 100 µM
- IC50 (HT-29 [2]): > 100 µM
- IC50 (NCI-H460 [3]): > 100 µM
- IC50 (PC-3 [4]): > 100 µM

SMILES: CC1(C)Cc2c(ccc(C(=O)/C=C/c3ccc(F)cc3)c2OCc2ccccc2)O1
- IC50 (B16 [1]): > 100 µM
- IC50 (HT-29 [2]): 23 µM
- IC50 (NCI-H460 [3]): 75.8 µM
- IC50 (PC-3 [4]): 44.2 µM

SMILES: CC1(C)Cc2c(ccc(C(=O)/C=C/c3ccc(Cl)cc3)c2OCc2ccccc2)O1
- inhibition of growth at 100 µM (B16 [5]): < 10%
- IC50 (HT-29 [2]): > 100 µM
- IC50 (NCI-H460 [3]): > 100 µM
- IC50 (PC-3 [4]): > 100 µM

SMILES: CC1(C)Cc2c(ccc(C(=O)/C=C/c3ccc(Br)cc3)c2OCc2ccccc2)O1
- inhibition of growth at 100 µM (B16 [5]): < 10%
- IC50 (NCI-H460 [3]): > 100 µM
- IC50 (PC-3 [4]): > 50 µM
- inhibition of growth at 100 µM (HT-29 [6]): < 10%

SMILES: COc1ccc(/C=C/C(=O)c2ccc3c(c2OCc2ccccc2)CC(C)(C)O3)cc1
- IC50 (B16 [1]): > 100 µM
- IC50 (NCI-H460 [3]): > 100 µM
- IC50 (PC-3 [4]): 48.9 µM
- inhibition of growth at 100 µM (HT-29 [6]): < 10%

SMILES: CC1(C)Cc2c(ccc(C(=O)/C=C/c3ccc(Cl)cc3Cl)c2OCc2ccccc2)O1
- IC50 (B16 [1]): > 100 µM
- inhibition of growth at 100 µM (PC-3 [7]): < 10%
- IC50 (HT-29 [2]): > 100 µM
- IC50 (NCI-H460 [3]): > 100 µM

SMILES: CC1(C)Cc2c(ccc(C(=O)/C=C/c3cn(-c4ccccc4)nc3-c3ccccc3)c2OCc2ccccc2)O1
- inhibition of growth at 100 µM (NCI-H460 [8]): < 10%
- IC50 (B16 [1]): > 100 µM
- IC50 (HT-29 [2]): > 100 µM
- IC50 (PC-3 [4]): > 100 µM

SMILES: Cc1ccc(-c2nn(-c3ccccc3)cc2/C=C/C(=O)c2ccc3c(c2OCc2ccccc2)CC(C)(C)O3)cc1
- inhibition of growth at 100 µM (B16 [5]): < 10%
- IC50 (HT-29 [2]): > 100 µM
- IC50 (NCI-H460 [3]): > 100 µM
- IC50 (PC-3 [4]): 24.2 µM

SMILES: CC1(C)Cc2c(ccc(C(=O)/C=C/c3cn(-c4ccccc4)nc3-c3ccc(Cl)cc3)c2OCc2ccccc2)O1
- inhibition of growth at 100 µM (B16 [5]): < 10%
- IC50 (HT-29 [2]): > 100 µM
- IC50 (NCI-H460 [3]): > 100 µM
- IC50 (PC-3 [4]): 26 µM

SMILES: COc1ccc(-c2nn(-c3ccccc3)cc2/C=C/C(=O)c2ccc3c(c2OCc2ccccc2)CC(C)(C)O3)cc1
- inhibition of growth at 100 µM (B16 [5]): < 10%
- IC50 (HT-29 [2]): > 100 µM
- IC50 (NCI-H460 [3]): > 100 µM
- IC50 (PC-3 [4]): 18.4 µM

SMILES: CC1(C)Cc2c(ccc(C(=O)/C=C/c3cn(-c4ccccc4)nc3-c3ccc([N+](=O)[O-])cc3)c2OCc2ccccc2)O1
- inhibition of growth at 100 µM (NCI-H460 [8]): < 10%
- inhibition of growth at 100 µM (B16 [5]): < 10%
- IC50 (PC-3 [4]): 62.3 µM
- inhibition of growth at 100 µM (HT-29 [6]): < 10%

SMILES: CC1(C)Cc2c(ccc(C(=O)/C=C/c3cn(-c4ccccc4)nc3-c3cccc([N+](=O)[O-])c3)c2OCc2ccccc2)O1
- IC50 (B16 [1]): > 50 µM
- IC50 (HT-29 [2]): > 100 µM
- IC50 (NCI-H460 [3]): > 100 µM
- IC50 (PC-3 [4]): > 100 µM

SMILES: CC1(C)Cc2c(OCc3ccccc3)ccc(C(=O)/C=C/c3ccccc3)c2O1
- IC50 (B16 [1]): 30.3 µM
- inhibition of growth at 100 µM (PC-3 [7]): < 10%
- IC50 (NCI-H460 [3]): > 100 µM
- inhibition of growth at 100 µM (HT-29 [6]): < 10%

SMILES: CC1(C)Cc2c(OCc3ccccc3)ccc(C(=O)/C=C/c3ccc(F)cc3)c2O1
- IC50 (B16 [1]): > 100 µM
- inhibition of growth at 100 µM (PC-3 [7]): < 10%
- IC50 (NCI-H460 [3]): 22.3 µM
- inhibition of growth at 100 µM (HT-29 [6]): < 10%

SMILES: CC1(C)Cc2c(OCc3ccccc3)ccc(C(=O)/C=C/c3ccc(Cl)cc3)c2O1
- inhibition of growth at 100 µM (NCI-H460 [8]): < 10%
- IC50 (B16 [1]): > 100 µM
- IC50 (PC-3 [4]): > 100 µM
- inhibition of growth at 100 µM (HT-29 [6]): < 10%

SMILES: CC1(C)Cc2c(OCc3ccccc3)ccc(C(=O)/C=C/c3ccc(Br)cc3)c2O1
- inhibition of growth at 100 µM (B16 [5]): < 10%
- IC50 (HT-29 [2]): > 100 µM
- IC50 (NCI-H460 [3]): > 100 µM
- IC50 (PC-3 [4]): > 100 µM

SMILES: COc1ccc(/C=C/C(=O)c2ccc(OCc3ccccc3)c3c2OC(C)(C)C3)cc1
- inhibition of growth at 100 µM (B16 [5]): < 10%
- IC50 (NCI-H460 [3]): > 100 µM
- IC50 (PC-3 [4]): 13.5 µM
- inhibition of growth at 100 µM (HT-29 [6]): < 10%

SMILES: CC1(C)Cc2c(OCc3ccccc3)ccc(C(=O)/C=C/c3ccc(Cl)cc3Cl)c2O1
- inhibition of growth at 100 µM (NCI-H460 [8]): < 10%
- inhibition of growth at 100 µM (B16 [5]): < 10%
- IC50 (PC-3 [4]): > 100 µM
- inhibition of growth at 100 µM (HT-29 [6]): < 10%

SMILES: CC1(C)Cc2c(OCc3ccccc3)ccc(C(=O)/C=C/c3cn(-c4ccccc4)nc3-c3ccccc3)c2O1
- inhibition of growth at 100 µM (NCI-H460 [8]): < 10%
- IC50 (B16 [1]): > 100 µM
- inhibition of growth at 100 µM (PC-3 [7]): < 10%
- inhibition of growth at 100 µM (HT-29 [6]): < 10%

SMILES: Cc1ccc(-c2nn(-c3ccccc3)cc2/C=C/C(=O)c2ccc(OCc3ccccc3)c3c2OC(C)(C)C3)cc1
- inhibition of growth at 100 µM (NCI-H460 [8]): < 10%
- IC50 (B16 [1]): > 100 µM
- IC50 (PC-3 [4]): > 100 µM
- inhibition of growth at 100 µM (HT-29 [6]): < 10%

SMILES: CC1(C)Cc2c(OCc3ccccc3)ccc(C(=O)/C=C/c3cn(-c4ccccc4)nc3-c3ccc(Cl)cc3)c2O1
- inhibition of growth at 100 µM (NCI-H460 [8]): < 10%
- inhibition of growth at 100 µM (B16 [5]): < 10%
- IC50 (PC-3 [4]): 8.4 µM
- inhibition of growth at 100 µM (HT-29 [6]): < 10%

SMILES: COc1ccc(-c2nn(-c3ccccc3)cc2/C=C/C(=O)c2ccc(OCc3ccccc3)c3c2OC(C)(C)C3)cc1
- inhibition of growth at 100 µM (NCI-H460 [8]): < 10%
- inhibition of growth at 100 µM (B16 [5]): < 10%
- IC50 (HT-29 [2]): > 100 µM
- IC50 (PC-3 [4]): 7.9 µM

SMILES: CC1(C)Cc2c(OCc3ccccc3)ccc(C(=O)/C=C/c3cn(-c4ccccc4)nc3-c3ccc([N+](=O)[O-])cc3)c2O1
- IC50 (B16 [1]): > 100 µM
- IC50 (HT-29 [2]): > 100 µM
- IC50 (NCI-H460 [3]): > 100 µM
- IC50 (PC-3 [4]): > 100 µM

SMILES: CC1(C)Cc2c(OCc3ccccc3)ccc(C(=O)/C=C/c3cn(-c4ccccc4)nc3-c3cccc([N+](=O)[O-])c3)c2O1
- inhibition of growth at 100 µM (B16 [5]): < 10%
- IC50 (NCI-H460 [3]): > 100 µM
- IC50 (PC-3 [4]): 5.9 µM
- inhibition of growth at 100 µM (HT-29 [6]): < 10%

SMILES: COc1ccc(/C=C/C(=O)c2ccc(O)c3c2OC(C)(C)C3)cc1
- IC50 (PC-3 [4]): 48.4 µM

SMILES: CC1(C)Cc2c(O)ccc(C(=O)/C=C/c3cn(-c4ccccc4)nc3-c3ccc(Cl)cc3)c2O1
- IC50 (PC-3 [4]): 18 µM

SMILES: COc1ccc(-c2nn(-c3ccccc3)cc2/C=C/C(=O)c2ccc(O)c3c2OC(C)(C)C3)cc1
- IC50 (PC-3 [4]): 20.8 µM

SMILES: CC1(C)Cc2c(O)ccc(C(=O)/C=C/c3cn(-c4ccccc4)nc3-c3cccc([N+](=O)[O-])c3)c2O1
- IC50 (PC-3 [4]): 25.6 µM

SMILES: COc1cccc2c1C(=O)c1c(O)c3c(c(O)c1C2=O)C[C@@](O)(C(=O)CO)C[C@@H]3O[C@H]1C[C@H](N)[C@H](O)[C@H](C)O1 [DOXORUBICIN]
- IC50 (B16 [1]): 0.03 µM
- IC50 (HT-29 [2]): 19.3 µM
- IC50 (NCI-H460 [3]): 5.6 µM
- IC50 (PC-3 [4]): 5.9 µM

Reference: ChEMBL document CHEMBL2040820, “Synthesis and selective cytotoxic activity of novel hybrid chalcones against prostate cancer cells” (Bioorg Med Chem Lett, 2012)
